Each block holds one molecule with its values, some of them ahead of it.
What was measured:
rat EDG8 = molecular target: T1, rat EDG8 (Rattus norvegicus, UniProt Q9JKM5); experiment: Effect of inhibitor alone on [Ca2+]i during preincubation, cells cotransfected with rat EDG8 and Gαqi5; format: cell-based; details: 3 minutes, before 1 μM S1P
T1 construct: expressed in transfected cells
Procedure: (§1) FIG. 9: Inhibition of S1P mediated intracellular calcium release by suramin and NF023 (8,8′-(carbonylbis(imino-3,1-phenylene))bis-(1,3,5-naphatlenetrisulfonic acid)) in cells transiently cotransfected with human EDG8 and Gαqi5 (A) and rat EDG8 and Gαqi5 (B). […] Cells were then stimulated with 1 μM S1P and in [Ca^2+]i measured with the FLIPR as described in the method section. Peak fluorescence counts were normalized and background responses of Gαqi5-transfected cells were subtracted. S1P-mediated calcium release in the absence of inhibitor was set 100%. Data are means±SE of 4–7 independent experiments.
(§2) Twenty-four hours after transfection, cells were splitted into 96-well, black-wall microplates (Corning) at a density of 50,000 cells per well. […] The fluorometric imaging plate reader (FLIPR, Molecular Devices) was programmed to transfer 100 μl from each well of the ligand microplate to each well of the cellplate and to record fluorescence during 3 min in 1 second intervals during the first minute and 3 second intervals during the last two minutes. Total fluorescence counts from the 18-s to 37-s time points are used to determine agonist activity. The instrument software normalizes the fluorescent reading to give equivalent initial readings at time zero.

human EDG8 [1] = molecular target: T2, human EDG8 (Homo sapiens, UniProt Q9H228); experiment: Effect of inhibitor alone on [Ca2+]i during preincubation, cells cotransfected with human EDG8 and Gαqi5; format: cell-based; set-up: The 1197 bp PCR product was cloned into the pCDNA3.1(+) mammalian expression vector; expressed in transfected cells; details: 3 minutes, before 1 μM S1P
T2 sequence (Q9H228 whole entry): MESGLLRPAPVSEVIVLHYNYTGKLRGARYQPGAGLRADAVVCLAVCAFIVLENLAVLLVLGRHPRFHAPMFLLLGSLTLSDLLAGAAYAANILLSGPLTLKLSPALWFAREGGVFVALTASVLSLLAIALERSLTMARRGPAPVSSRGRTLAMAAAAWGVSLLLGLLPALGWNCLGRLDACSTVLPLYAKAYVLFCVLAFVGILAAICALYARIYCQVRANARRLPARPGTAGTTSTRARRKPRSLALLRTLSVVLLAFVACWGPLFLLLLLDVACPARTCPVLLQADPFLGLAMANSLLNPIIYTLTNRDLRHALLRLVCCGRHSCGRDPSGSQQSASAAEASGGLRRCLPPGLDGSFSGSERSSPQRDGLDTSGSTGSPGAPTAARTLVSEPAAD
Procedure: as §1, §2

human EDG8 [2] = molecular target: T2, human EDG8; experiment: FLIPR intracellular Ca2+ mobilization in CHO cells transiently transfected with EDG8; format: cell-based; set-up: The 1197 bp PCR product was cloned into the pCDNA3.1(+) mammalian expression vector; expressed in transfected cells; host or cells: CHO-K1, transient transfection; details: for EDG8-mediated increase in intracellular Ca2+ by lysophospholipid mediators: CHO cells transiently transfected with EDG8 and Gα16 or Gαqi5, lipids at 10, 100, 1000 nM
Procedure: FIG. 3: Effects of S1P, LPA and related lysophospholipid mediators on EDG8-mediated increase in intracellular Ca^2+. CHO-cells were cotransfected with EDG8 and the G protein α subunits Gqi5 (upper panel) and G16 (lower panel) and rises in [Ca^2+]i were recorded with the FLIPR as described in Experimental procedures. The different lipids were applied in concentrations of 10, 100 and 1000 nM, respectively. Data are means of quadruplicate determinations of a representative experiment.
CHO-K1 cells were grown in basal ISCOVE medium supplemented with 10% fetal bovine serum at 37° C. in a humidified 5% CO2 incubator. For transfections, 2×10^5 cells were seeded into 35-mm dishes. About 24 hr later cells were transiently transfected at 50–80% confluency with the indicated receptor and G-protein constructs (1 μg of plasmid DNA each) using the Lipofectamine transfection reagent and the supplied protocol (GIBCO). 18–24 hr after transfection cells were seeded into 96well plates at a density of 50,000 cells per well and cultured for 18–24 additional hr until used in the functional FLIPR assays.
Twenty-four hours after transfection, cells were splitted into 96-well, black-wall microplates (Corning) at a density of 50,000 cells per well. 18–24 hr later, cells were loaded with 95 μl of HBSS containing 20 mM Hepes, 2.5 mM probenecid, 4 μM fluorescent calcium indicator dye Fluo4 (Molecular Probes) and 1% fetal bovine serum for 1 h (37° C., 5% CO2). Cells were washed three times with HBSS containing 20 mM Hepes and 2.5 mM probenecid in a cell washer. After the final wash, the solution was aspirated to a residual volume of 100 μl per 96 well. Lipid ligands were dissolved in DMSO as 2 mM stock solutions (treated with ultrasound when necessary) and diluted at least 1:100 into HBSS containing 20 mM HEPES, 2.5 mM probenecid and 0.4 mg/ml fatty acid free bovine serum albumine. Lipids were aliquoted as 2× solutions into a 96 well plate prior to the assay. The fluorometric imaging plate reader (FLIPR, Molecular Devices) was programmed to transfer 100 μl from each well of the ligand microplate to each well of the cellplate and to record fluorescence during 3 min in 1 second intervals during the first minute and 3 second intervals during the last two minutes. Total fluorescence counts from the 18-s to 37-s time points are used to determine agonist activity. The instrument software normalizes the fluorescent reading to give equivalent initial readings at time zero.

EDG1 receptor = EDG1 receptor (Homo sapiens, UniProt P21453); experiment: FLIPR intracellular Ca2+ mobilization in CHO cells transfected with EDG1; format: cell-based; details: transiently transfected CHO cells; 10, 100, 1000 nM
EDG1 receptor, sequence (P21453 whole entry): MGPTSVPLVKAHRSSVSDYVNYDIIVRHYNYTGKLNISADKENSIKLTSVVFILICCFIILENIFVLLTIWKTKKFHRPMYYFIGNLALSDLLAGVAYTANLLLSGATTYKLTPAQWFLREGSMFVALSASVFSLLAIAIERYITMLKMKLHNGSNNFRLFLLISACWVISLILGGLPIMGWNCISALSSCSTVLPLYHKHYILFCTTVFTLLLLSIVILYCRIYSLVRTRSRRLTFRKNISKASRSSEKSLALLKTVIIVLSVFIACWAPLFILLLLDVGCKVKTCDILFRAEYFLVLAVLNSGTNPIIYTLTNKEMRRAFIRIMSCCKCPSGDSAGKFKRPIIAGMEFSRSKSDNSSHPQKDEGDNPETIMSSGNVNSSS
Procedure: (§3) FIGS. 2A–F: Mobilization of intracellular Ca^2+ by S1P (10, 100 and 1000 nM) mediated by the EDG1, 3, 5, 6 and 8 receptor in CHO cells, cotransfected with empty vector DNA as a control or the indicated G-protein α subunits.
(§4) A: S1P-induced Ca^2+-response in CHO cells transfected with vector DNA alone or the G protein α subunits Gq, G16 and Gqi5. B-F: S1P-induced Ca^2+-response in CHO cells transfected with the indicated EDG-receptor subtypes. Agonist-mediated changes of intracellular Ca^2+ were measured with the FLIPR using the Ca^2+-sensitive dye FLUO4 as described in Experimental procedures. Fluorescence of transfected cells loaded with FLUO4 was recorded before and after addition of S1P, applied in the indicated concentrations. Data are expressed as means of quadruplicate determinations in a single experiment.
(§5) CHO-K1 cells were grown in basal ISCOVE medium supplemented with 10% fetal bovine serum at 37° C. in a humidified 5% CO2 incubator. For transfections, 2×10^5 cells were seeded into 35-mm dishes. About 24 hr later cells were transiently transfected at 50–80% confluency with the indicated receptor and G-protein constructs (1 μg of plasmid DNA each) using the Lipofectamine transfection reagent and the supplied protocol (GIBCO). […]

EDG3 receptor = EDG3 receptor (Homo sapiens, UniProt Q99500); experiment: FLIPR intracellular Ca2+ mobilization in CHO cells transfected with EDG3; format: cell-based; details: transiently transfected CHO cells; 10, 100, 1000 nM
EDG3 receptor, sequence (Q99500 whole entry): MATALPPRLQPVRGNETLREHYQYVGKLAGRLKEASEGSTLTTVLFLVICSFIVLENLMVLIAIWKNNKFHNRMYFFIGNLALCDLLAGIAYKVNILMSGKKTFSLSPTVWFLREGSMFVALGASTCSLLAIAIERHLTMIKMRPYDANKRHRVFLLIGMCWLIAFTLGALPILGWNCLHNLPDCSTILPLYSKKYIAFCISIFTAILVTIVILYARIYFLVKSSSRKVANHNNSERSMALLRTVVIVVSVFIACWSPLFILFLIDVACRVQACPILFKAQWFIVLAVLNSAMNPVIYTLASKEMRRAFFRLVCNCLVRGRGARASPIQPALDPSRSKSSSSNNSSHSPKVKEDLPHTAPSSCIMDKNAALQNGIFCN
Procedure: as §3, §4, §5

CHO cells = experiment: FLIPR intracellular Ca2+ mobilization in CHO cells without EDG receptor (vector or G protein alpha subunits only); format: cell-based, chinese hamster
Procedure: as §3, §4, §5

EDG5 receptor = molecular target: T3, EDG5 receptor (Homo sapiens, UniProt O95136); experiment: FLIPR intracellular Ca2+ mobilization in CHO cells transfected with EDG5; format: cell-based; details: transiently transfected CHO cells; 10, 100, 1000 nM
T3 construct: expressed in transfected cells; host or cells: CHO-K1, transient transfection
T3 sequence (O95136 whole entry): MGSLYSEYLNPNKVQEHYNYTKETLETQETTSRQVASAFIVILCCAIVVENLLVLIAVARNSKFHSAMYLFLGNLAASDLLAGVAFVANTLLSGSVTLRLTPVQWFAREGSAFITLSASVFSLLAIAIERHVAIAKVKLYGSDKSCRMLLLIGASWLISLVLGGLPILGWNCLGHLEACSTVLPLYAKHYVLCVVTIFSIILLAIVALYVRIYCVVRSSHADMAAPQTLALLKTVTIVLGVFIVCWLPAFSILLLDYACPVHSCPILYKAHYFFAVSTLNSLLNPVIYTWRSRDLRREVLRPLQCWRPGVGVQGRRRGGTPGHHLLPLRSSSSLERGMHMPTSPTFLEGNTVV
Procedure: as §3, §4, §5

EDG6 receptor = EDG6 receptor (Homo sapiens, UniProt O95977); experiment: FLIPR intracellular Ca2+ mobilization in CHO cells transfected with EDG6; format: cell-based; details: absence of any cotransfected G-protein α subunit
EDG6 receptor, sequence (O95977 whole entry): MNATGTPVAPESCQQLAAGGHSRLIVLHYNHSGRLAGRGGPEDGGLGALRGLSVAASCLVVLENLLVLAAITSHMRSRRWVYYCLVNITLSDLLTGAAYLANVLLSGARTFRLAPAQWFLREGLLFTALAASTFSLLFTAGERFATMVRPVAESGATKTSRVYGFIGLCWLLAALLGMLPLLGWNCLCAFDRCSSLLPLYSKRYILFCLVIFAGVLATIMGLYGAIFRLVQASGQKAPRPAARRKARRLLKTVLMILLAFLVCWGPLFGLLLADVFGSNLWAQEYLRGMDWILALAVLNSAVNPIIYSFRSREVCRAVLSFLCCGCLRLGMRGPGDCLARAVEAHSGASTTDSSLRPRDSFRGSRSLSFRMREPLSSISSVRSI
Procedure: as §3, §4, §5

T1 sequence (Q9JKM5 whole entry): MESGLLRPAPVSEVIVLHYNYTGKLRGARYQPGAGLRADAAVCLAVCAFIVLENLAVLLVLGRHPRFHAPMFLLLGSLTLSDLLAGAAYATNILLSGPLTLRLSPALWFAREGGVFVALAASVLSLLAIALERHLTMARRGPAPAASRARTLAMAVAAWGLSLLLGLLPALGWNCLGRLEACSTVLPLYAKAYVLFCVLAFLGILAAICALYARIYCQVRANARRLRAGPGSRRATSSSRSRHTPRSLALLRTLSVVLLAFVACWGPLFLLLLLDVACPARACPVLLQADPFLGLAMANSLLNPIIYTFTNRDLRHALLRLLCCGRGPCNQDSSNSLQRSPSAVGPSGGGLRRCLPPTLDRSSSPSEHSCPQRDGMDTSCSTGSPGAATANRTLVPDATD

- Effect on [Ca2+]i mobilization during preincubation period (rat EDG8): did not show any effect
- Effect on [Ca2+]i mobilization during preincubation period (human EDG8 [1]): did not show any effect
Molecule: Cc1ccc(C(=O)Nc2ccc(S(=O)(=O)O)c3cc(S(=O)(=O)O)cc(S(=O)(=O)O)c23)cc1NC(=O)c1cccc(NC(=O)Nc2cccc(C(=O)Nc3cc(C(=O)Nc4ccc(S(=O)(=O)O)c5cc(S(=O)(=O)O)cc(S(=O)(=O)O)c45)ccc3C)c2)c1 [suramin]

Molecule: CCCCCCCCCCCCCCC[C@@H](O)[C@@H](N)COP(=O)(O)O [dHS1P, dihydro sphingosine 1-phosphate]
- EDG8-mediated increase in intracellular Ca2+ by lysophospholipid mediators (human EDG8 [2]): evoked [Ca^2+]i increases in concentrations of 100 and 1000 nM

Molecule: lysophosphatidic acid [LPA]
- EDG8-mediated increase in intracellular Ca2+ by lysophospholipid mediators (human EDG8 [2]): evoked [Ca^2+]i increases in concentrations of 100 and 1000 nM

Molecule: CCCCCCCCCCCCC/C=C/[C@@H](O)[C@@H](N)COP(=O)([O-])OCC[N+](C)(C)C [SPC, sphingosylphosphorylcholine]
- EDG8-mediated increase in intracellular Ca2+ by lysophospholipid mediators (human EDG8 [2]): failed to generate any significant response in concentrations up to 1 μM

- S1P-induced [Ca2+]i mobilization via EDG1 (EDG1 receptor): mobilize [Ca^2+]i in response to S1P
- S1P-induced [Ca2+]i mobilization via EDG3 (EDG3 receptor): mobilize [Ca^2+]i in response to S1P
- S1P-induced [Ca2+]i mobilization via EDG5 (EDG5 receptor): mobilize [Ca^2+]i in response to S1P
- EDG8-mediated increase in intracellular Ca2+ by lysophospholipid mediators (human EDG8 [2]): most potent activator of EDG8
- S1P-induced Ca2+ mobilization via EDG8 (human EDG8 [2]; CHO cells, EDG8 cotransfected with Gα16 or Gαqi5, 10, 100 and 1000 nM): gained the ability to mobilize Ca^2+
- S1P-induced [Ca2+]i release via EDG8 (human EDG8 [2]; CHO cells, EDG8 without cotransfected G protein α subunit, 10, 100 and 1000 nM): did not release [Ca^2+]i
Molecule: CCCCCCCCCCCCC/C=C/[C@@H](O)[C@@H](N)COP(=O)(O)O [S1P, sphingosine 1-phosphate]
- S1P-induced rise in intracellular Ca2+ (CHO cells; CHO cells transfected with empty vector DNA, 10, 100, 1000 nM): None of the applied S1P concentrations was capable of eliciting significant rises in intracellular Ca^2+
- S1P-induced increase in [Ca2+]i (CHO cells; Gqi5- and G16-transfected CHO cells, no EDG receptor): did not give rise to significant increases in [Ca^2+]i
- S1P-induced [Ca2+]i mobilization via EDG6 (EDG6 receptor): failed to detect a significant Ca^2+ increase above basal levels

Molecule: lysophosphatidylcholine [LPC]
- EDG8-mediated increase in intracellular Ca2+ by lysophospholipid mediators (human EDG8 [2]): failed to generate any significant response in concentrations up to 1 μM

Source: patent publication US7141383B2, “EDG8 receptor, its preparation and use” (Sanofi-Aventis Deutschland GmbH, priority 2000, dated 2006)
